The values below come from patent US9932300B2, “N,N′-diarylurea compounds and N,N′-diarylthiourea compounds as inhibitors of translation initiation” (President and Fellows of Harvard College, priority 2009, dated 2018).

The structures appear in SMILES notation.

The subject of the assay is eIF2-GTP-Met-tRNAi ternary complex. Description: Ternary complex assay (dual luciferase, firefly/renilla ratio) in stable KLN-tTA/pBISA-DL(ATF-4) cells; HTS and hit confirmation. Format: cell-based, mouse. Further details: Activity 10 uM / Activity 2.5 uM / Activity 5 uM: unit not given here. The settings on record: confirmed hits of the screen (Table 5); for Activity 2.5 uM: compound at 2.5 uM; for Activity 10 uM: compound at 10 uM; for Activity 5 uM: compound at 5 uM.

On to `CCC[CH2][Sn]1([CH2]CCC)[O]CC2(CCCCC2)C[O]1` [Compound 194646], for which the “Activity 2.5 uM” value was 8.08 and the “Activity 10 uM” value was determined as 6.24. The matching figures for `C=C1CC2(OC1=O)C(=O)N(C)c1ccccc12` (stereo not drawn) [Compound 194807]: 1.72 and 3.45. In the same order, the values of `COc1ccc(NC(=S)Nc2ccccc2S)cc1` [Compound 201570] are 2.16 and 3.02. As to `C/C(=N\N=C(/C)c1ccc(F)cc1)c1ccc(F)cc1` [Compound 202060], the “Activity 5 uM” value was 3.63 and the “Activity 10 uM” value was 5.049. As for `CCS(=O)(=O)/C=C/c1ccc2ccccc2n1` [Compound 202491], the “Activity 2.5 uM” value is listed as 0.5 and the “Activity 10 uM” value was 3.05. Regarding `CCCC[CH2][Sn]([CH2]CCCC)[CH2]CCCC.CCCC[CH2][Sn]([CH2]CCCC)[CH2]CCCC` [Compound 202674], the “Activity 2.5 uM” value is listed as 4.67.

With `CCC[CH2][Sn]([C]#[C][Sn]([CH2]CCC)([CH2]CCC)[CH2]CCC)([CH2]CCC)[CH2]CCC` [Compound 203205], the “Activity 2.5 uM” value turned out to be 3.12. For the compound `C(=P(c1ccccc1)(c1ccccc1)c1ccccc1)[P+](c1ccccc1)(c1ccccc1)c1ccccc1.[Br-].[Br-].[Cu+]` [Compound 203423], the “Activity 2.5 uM” value was found to be 7.7 and the “Activity 10 uM” value was determined as 3.09.

`O=C(Nc1ccc(Cl)c(Cl)c1)c1ccc(Cl)cc1` [Compound 204163]: the “Activity 2.5 uM” value is reported as 2.44 and the “Activity 10 uM” value is given as 4.83. Regarding `Cc1cc(Cl)c(Cl)cc1NC(=O)c1ccc(Cl)cc1Cl` [Compound 204246], the “Activity 2.5 uM” value was found to be 1.92 and the “Activity 10 uM” value worked out at 3.49. Turning to `COc1ccccc1C(=O)N/N=C\c1ccc(Cl)cc1Cl` [Compound 204386], the “Activity 5 uM” value is given as 5.252 and the “Activity 10 uM” value is listed as 6.0225. Turning to `CN(C)c1ccc(N=Nc2cccc([N+](=O)[O-])c2)cc1` [Compound 204512], the “Activity 2.5 uM” value is listed as 2.67 and the “Activity 10 uM” value is recorded as 4.16. Turning to `Cc1ccc(N=Nc2ccc(N(C)C)cc2)cc1` [Compound 204514], the “Activity 2.5 uM” value is listed as 3.6 and the “Activity 10 uM” value was 4.66. Turning to `CN(C)c1ccc(N=Nc2cccc(Cl)c2)cc1` [Compound 204515], the “Activity 2.5 uM” value was determined as 2.84 and the “Activity 10 uM” value is 5.31. As for `O=C(Nc1ccc2ccccc2c1)c1ccccc1Cl` [Compound 204548], the “Activity 2.5 uM” value was determined as 2.82 and the “Activity 10 uM” value is 3.99. Consider `CSc1ccc(NC(=O)c2ccc(Cl)cc2Cl)cc1` [Compound 204668], for which the “Activity 5 uM” value was found to be 5.386 and the “Activity 10 uM” value amounted to 4.923.

With `O=C(COc1ccc(Cl)cc1)Nc1nccs1` [Compound 204716], the “Activity 2.5 uM” value is given as 2.2 and the “Activity 10 uM” value came out at 3.01.

For `CCc1ccc(NC(=O)Nc2ccc(Cl)c(Cl)c2)cc1` [Compound 204750], the “Activity 2.5 uM” value worked out at 3.53 and the “Activity 10 uM” value is given as 24.26. In the same order, the values of `O=C(Nc1ccc(Cl)c(Cl)c1)OCC1CC2C=CC1C2` (stereo not drawn) [Compound 204751] are 2.91 and 4.76.

With `CCOC(=O)C1CCc2c(ccc3ccccc23)N1` (stereo not drawn) [Compound 204931], the “Activity 5 uM” value was found to be 3.1 and the “Activity 10 uM” value was 3.539. As to `O=C(Nc1ccc2ccccc2c1)c1ccc(Cl)cc1` [Compound 205530], the “Activity 2.5 uM” value came to 3.08 and the “Activity 10 uM” value turned out to be 3.34. The matching figures for `O=C(Nc1ccc(Br)cc1)OCC1CC2C=CC1C2` (stereo not drawn) [Compound 205545]: 2.41 and 4.54. For `O=C(Nc1ccccc1F)C(Br)C(Br)c1ccccc1` (stereo not drawn) [Compound 205548], the “Activity 2.5 uM” value was found to be 2.94 and the “Activity 10 uM” value is reported as 4.01.

With `CSc1ccc(NC(=O)Nc2cccc(F)c2)cc1` [Compound 205787], the “Activity 2.5 uM” value was 1.79 and the “Activity 10 uM” value was determined as 4.39. Regarding `CSc1ccc(NC(=O)Nc2ccccc2F)cc1` [Compound 205789], the “Activity 2.5 uM” value was 3.99 and the “Activity 10 uM” value amounted to 7.26. As to `CO[C@H]1/C=C/O[C@@]2(C)Oc3c(C)c(O)c4c(O)c(c(/C=N/N5CC(C)(C)N(Cc6ccccc6)CC5(C)C)c(O)c4c3C2=O)NC(=O)/C(C)=C\C=C\[C@H](C)[C@H](O)[C@@H](C)[C@@H](O)[C@@H](C)[C@H](OC(C)=O)[C@@H]1C` [Compound 208394], the “Activity 5 uM” value was determined as 1.5 and the “Activity 10 uM” value came to 13.4. Turning to `COc1ccc(N=Nc2cc(C)c(C)cc2O)cc1` [Compound 209832], the “Activity 5 uM” value is on record as 9.509 and the “Activity 10 uM” value is 4.7795. Turning to `O=[N+]([O-])c1ccc(OCc2ccc(CBr)cc2)c(Cl)c1` [Compound 212379], the “Activity 2.5 uM” value worked out at 2.28 and the “Activity 10 uM” value was found to be 4.4. Turning to `Cc1ccnc(NC(=O)Nc2cc(F)ccc2F)c1` [Compound 213710], the “Activity 5 uM” value was 4.183 and the “Activity 10 uM” value came to 5.091. The matching figures for `O=C(Nc1ccc(F)cc1)OCC1CC2C=CC1C2` (stereo not drawn) [Compound 213848]: 4.586 and 3.5355. In the case of `O=C(Nc1ccc(CCO)cc1)Nc1ccccc1F` [Compound 214004], the “Activity 5 uM” value was found to be 5.299 and the “Activity 10 uM” value was 6.0655. Regarding `O=C(Nc1ccc2ccccc2c1)c1cccc(F)c1` [Compound 214029], the “Activity 5 uM” value is listed as 5.245 and the “Activity 10 uM” value was 6.8665. Turning to `O=C(Nc1ccc2ccccc2c1)c1ccc(F)cc1` [Compound 214041], the “Activity 5 uM” value came to 6.705 and the “Activity 10 uM” value is recorded as 8.374. For `CCCCCCOC(=O)Nc1cccc(O)c1` [Compound 222612], the “Activity 5 uM” value is 4.521 and the “Activity 10 uM” value worked out at 2.88. `O=C(O)c1ccc(/C=N\Nc2ccccc2)cc1` [Compound 227290]: the “Activity 5 uM” value is reported as 5.935 and the “Activity 10 uM” value is 6.8065. As to `O=S(=O)(Cc1ccccc1)CC(Br)CBr` (stereo not drawn) [Compound 229344], the “Activity 2.5 uM” value stood at 1.28 and the “Activity 10 uM” value worked out at 4.4.

With `O=C1c2ccccc2C(=O)c2c1ccc1c2CCCC1` [Compound 230359], the “Activity 5 uM” value was 4.465 and the “Activity 10 uM” value came to 8.3955. With `CN(C)c1ccc(/C=N/Nc2ccccc2)cc1` [Compound 230415], the “Activity 5 uM” value is given as 2.468 and the “Activity 10 uM” value came to 3.3005.

`[C-]#[N+]C1CCCCC1.[C-]#[N+]C1CCCCC1.[C-]#[N+]C1CCCCC1.[C-]#[N+]C1CCCCC1.[C-]#[N+]C1CCCCC1.[C-]#[N+]C1CCCCC1.[Mn]` [Compound 231980]: the “Activity 5 uM” value turned out to be 4.1 and the “Activity 10 uM” value was 3.8. Regarding `COc1c(O)c2c(=O)cc3c4c5c(cc(=O)c6c(O)c(OC)c(CC(C)O)c(c(c1CC(C)O)c24)c65)OCO3` (stereo not drawn) [Compound 234486], the “Activity 2.5 uM” value was 10. Turning to `[Br][Ni][Br].c1ccc(CN2CCN(Cc3ccccc3)CCN(Cc3ccccc3)CCN(Cc3ccccc3)CC2)cc1` [Compound 236237], the “Activity 2.5 uM” value worked out at 1.78 and the “Activity 10 uM” value came out at 57.44. Turning to `CN(C)c1ccc(C(=N)Cc2ccc3ccccc3n2)cc1` [Compound 240575], the “Activity 5 uM” value was 6.23 and the “Activity 10 uM” value was found to be 7.0215. For `CN(C)c1ccc(C(O)Cc2ccc3ccccc3n2)cc1` (stereo not drawn) [Compound 240576], the “Activity 5 uM” value was 5.47 and the “Activity 10 uM” value is given as 6.2885. Consider `CN(C)c1ccc(C(=O)Cc2ccc3ccccc3n2)cc1` [Compound 240577], for which the “Activity 2.5 uM” value was determined as 2.68 and the “Activity 10 uM” value was 4.63. For the compound `CN(C)c1ccc(-c2nc3ccccn3c2N)cc1` [Compound 240724], the “Activity 5 uM” value worked out at 3.594 and the “Activity 10 uM” value was found to be 4.257.

Turning to `CN(C)c1ccc(N=Nc2ccc(C(=O)Cl)cc2)cc1` [Compound 240870], the “Activity 5 uM” value is reported as 6.352 and the “Activity 10 uM” value was found to be 7.2395. Regarding `C=C1C(=O)OC2CCCCC3OC3C12` (stereo not drawn) [Compound 258618], the “Activity 2.5 uM” value was 0.85 and the “Activity 10 uM” value is given as 3.2. The matching figures for `[O-][n+]1c2ccccc2nn1-c1ccc(N(CCCl)CCCl)cc1` [Compound 260514]: 1.94 and 3.87. The matching figures for `CNC(=S)N/N=C/c1nccc(-c2ccccc2)c1C` [Compound 262421]: 24.56 and 107.79. With `CCCCCCCCCCCCCCCC[N+](C)(C)Cc1ccccc1.[Br-]` [Compound 263517], the “Activity 2.5 uM” value is given as 1.39 and the “Activity 10 uM” value is reported as 8.78.

For the compound `CC(=O)OCC1OC(n2nnc(CCl)c2CCl)C(OC(C)=O)C(OC(C)=O)C1OC(C)=O` (stereo not drawn) [Compound 268393], the “Activity 2.5 uM” value is recorded as 0.71. Take `CN(C)c1ccc(/C=C/c2ccc3ccccc3[n+]2[O-])cc1` [Compound 268776]: the “Activity 5 uM” value was 5.767 and the “Activity 10 uM” value is given as 5.5035. Turning to `Cc1cc(OC(=O)Nc2ccc(Cl)c([N+](=O)[O-])c2)c(Cl)cc1Br` [Compound 270151], the “Activity 2.5 uM” value is reported as 1.24 and the “Activity 10 uM” value is 3.16. With `COc1cc2c(cc1O)C(=O)c1[nH]c3ccccc3c1CC2` [Compound 271272], the “Activity 2.5 uM” value was determined as 2.76 and the “Activity 10 uM” value is on record as 4.93. With `O=C(OCC1OC(n2cc[n+]([O-])nc2=O)C(OC(=O)c2ccccc2)C1OC(=O)c1ccccc1)c1ccccc1` (stereo not drawn) [Compound 276293], the “Activity 2.5 uM” value was found to be 20.35. As to `O=C(Nc1ncc([N+](=O)[O-])s1)c1cccnc1` [Compound 276393], the “Activity 5 uM” value was 6.644 and the “Activity 10 uM” value is listed as 8.706. With `CCOC(=O)[C]1([Hg][CH3])N=NC(C(=O)OC)=C1C(=O)OC` (stereo not drawn) [Compound 278352], the “Activity 2.5 uM” value was found to be 3.81.
